Assay results reported in PubChem BioAssay AID179 (DTP/NCI, 2004).
Active and inactive are the calls of the source.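 The calls were made as follows: active = compounds giving half or more protection of infected cells from virus-caused growth loss, again on retest; inactive = the rest.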 Where a SMILES comes first, the peptide text is derived from it.

System: CEM cells HIV-1 protection, formazan growth assay
Test: NCI AIDS Antiviral Assay
Details: for IC50: measured here: growth of uninfected CEM cells
How it was run: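 Steps: treat uninfected and HIV-1-infected human CEM cells at five drug levels; quantify growth by soluble formazan; retest any compound reaching 50% protection; classify actives from the retest.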

Row | SMILES | EC50 [µM] | IC50 [µM] | outcome
1 | CCCCOC(=S)SSC(=S)NCCNC(=S)SSC(=S)OCCCC | > 200 | 55 | 
2 | Cc1nnc2n1N=C(c1ccc(O)c(O)c1O)CS2 | > 200 | 20.4 | 
3 | C=C1C(=O)O[C@H]2C3C(=C(C)CC[C@@H]12)C(=O)[C@@H]1OC31C (some centres undefined) | > 200 | 0.676 | 
4 | c1csc(-c2cscc2-c2ccsc2)c1 | > 200 | 38.9 | 
5 | Cc1nn2c(nc1=O)sc1ccc3ccccc3c12 | > 83.2 | > 83.2 | 
6 | NN1C(=O)CS/C1=N\C(=S)N/N=C1/SCC(=O)N1N | 57.5 | 85.1 | 
7 | COc1ccc2c(c1OC)C(C=C(c1ccccc1)c1ccccc1)CN(C)C2 (centres undefined) | > 93.3 | 15.8 | 
8 | COC(=O)c1ccc(COC(=O)c2cc(C(=CCC[C@H]3CC[C@@]4(C)[C@@H](CC[C@@H]5[C@@H]4CC[C@]4(C)[C@@H](C(C)CCCC(C)C)CC[C@@H]54)C3)c3cc(Cl)c(OCc4ccc(C(=O)OC)cc4)c(C(=O)OCc4ccc(C(=O)OC)cc4)c3)cc(Cl)c2OCc2ccc(C(=O)OC)cc2)cc1 (some centres undefined) | > 200 | > 200 | 
9 | CCCCCCCCCC=C(c1cc(Br)c(OC)c(C(=O)OC)c1)c1cc(Br)c(OC)c(C(=O)OC)c1 | > 29.5 | > 29.5 | 
10 | C/C=C(/CCO)[Si](C)(C)C |  |  | inactive
11 | CC(=O)c1sc2c(c1OC(=O)c1ccc(Cl)cc1Cl)c(=O)n(-c1ccccc1)c(=S)n2-c1ccccc1 | > 200 | 0.0631 | 
12 | Cc1nn(C(=O)Cc2ccccc2)c2c1C(c1ccc3ccccc3c1O)SC(N)=N2 (centres undefined) | > 200 | 24 | 
13 | CC(C)(C)c1cc(-c2cc(C(C)(C)C)n(-c3ccccc3)n2)nn1-c1ccccc1 | > 200 | 89.1 | 
14 | O=C(N=C1[Se]C(=Nc2ccccc2)C(=Nc2ccccc2)N1c1ccc(Cl)cc1)c1ccccc1 | > 100 | 89.1 | 
15 | COc1ccccc1NC(=O)C1=C(C)NC(C)=C(C(=O)Nc2ccccc2OC)C1c1ccco1 |  |  | inactive
16 | CC(=O)C1=C(C)Cn2c(=O)c3ccccc3c(=O)n2C1 | > 95.5 | > 95.5 | 
17 | CC(SCCCCCCSC(C)C(=O)O)C(=O)O (centres undefined) | > 851 | > 851 | 
18 | CC(NC(=O)CNC(=O)C(N)CO)C(=O)NC(CCC(N)=O)C(=O)NC(CCC(=O)O)C(=O)NC(C)C(=O)NC(CCCCN)C(=O)NC(CCC(=O)O)C(=O)NC(CCC(N)=O)C(=O)NC(CCCN=C(N)N)C(=O)NC(C(=O)NC(CC(N)=O)C(=O)NC(C)C(=O)NC(Cc1cnc[nH]1)C(=O)NC(CO)C(=O)O)C(C)O (centres undefined) (H-SGAQEAKEQRTNAHS-OH; configuration not given here) | > 100 | > 100 | 
19 | CC1(C)CC(=O)C2=C(C1)Nc1ccc(Cl)cc1NC2c1cccc([N+](=O)[O-])c1 (centres undefined) | > 200 | 102 | 
20 | Cc1cc(Cl)cc(S)c1S(=O)(=O)Nc1nnc2ccc3ccccc3n12 | > 200 | 93.3 | 
21 | Cc1n[nH]c(=O)n1N1C(=O)c2ccccc2C1=O | > 200 | > 200 | 

Row | SMILES | EC50 [µM] | IC50 [µM] | outcome
22 | CC(C)C1=CC23CCC4C(C)(C(=O)O)CCCC4(C)C2CC1C1C(=O)N(c2ccc(N4C(=O)C5C6CC7C8(C)CCCC(C)(C(=O)O)C8CCC7(C=C6C(C)C)C5C4=O)cc2)C(=O)C13 (centres undefined) | > 55 | 3.8 | 
23 | Cc1cccc2c1C(=O)C1(Cc3ccccc3C1=O)C2 (centres undefined) | > 200 | > 200 | 
24 | CCCCCCOP(=O)(OCCCCCC)C(NC(=O)OCC)(C(F)(F)F)C(F)(F)F | > 200 | 21.9 | 
25 | C/C=C/C=C\C(=O)C1c2cccc(O)c2C(=O)c2c(O)cc(C)cc21 (centres undefined) | > 21.4 | 3.89 | 
26 | O=C1CSC(c2ccc(Cl)cc2Cl)N1c1ccc(Oc2ccc(Cl)cc2)c(Cl)c1 (centres undefined) | > 100 | 26.3 | 
27 | NC(=O)CNC(=O)c1ccc([As](=O)(O)O)cc1 | > 200 | > 200 | 
28 | c1ccc2c3c([nH]c2c1)C1c2[nH]c4ccccc4c2CCN1CC3 | > 200 | 11 | 
29 | Fc1ccccc1-c1nn2c(C34CC5CC(CC(C5)C3)C4)nnc2s1 | > 200 | > 200 | 
30 | O=c1[nH]nc(-c2ccccc2)n1/N=C/c1ccccc1O | > 200 | 115 | 
31 | CN[C@@H]1[C@H](O)[C@H](NC)[C@H]2O[C@@]3(O)C(=O)C[C@@H](C)O[C@H]3O[C@@H]2[C@H]1O | > 200 | > 200 | 
32 | Cc1ccnc(NC(=S)Nc2ccccc2Cl)c1 | > 200 | > 200 | 
33 | C[n+]1c(/C=C/c2ccc3c(c2)OCO3)ccc2ccccc21 | > 200 | 5.89 | 
34 | Cc1[nH]n(-c2nc(O)c(C)c(=O)[nH]2)c(=O)c1CCO | > 200 | > 200 | 
35 | COc1ccc([C@H]2[C@H]3COC(=O)[C@H]3C(C#N)=C3Sc4ccccc4N32)cc1 | > 200 | 12.9 | 
36 | O=S1(=O)CCCc2c1ccc1ccccc21 | > 200 | > 200 | 
37 | CCc1n[nH]c(=O)n1/N=C/c1c(O)ccc2ccccc12 | > 200 | > 200 | 
38 | Cn1c(=O)c2c(n(C)c1=O)n1c(=O)c3ccccc3nc1n2C | > 200 | > 200 | 
39 | OC(C#CCN1CCCC1)(c1ccccc1)c1ccc(F)cc1.[C-]#[O+].[C-]#[O+].[C-]#[O+].[C-]#[O+].[C-]#[O+].[C-]#[O+].[Co].[Co] (centres undefined) | > 200 | 7.41 | 
40 | CCOC(=O)/C(C#N)=C/c1ccc(C)cc1 | > 120 | > 120 | 
41 | Nc1ccccc1C(=O)/C=C/c1c(O)ccc2ccccc12 |  |  | inactive
